ChEMBL document CHEMBL1201862, “PubChem BioAssay data set” (2004)
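Five compound concentrations were applied to cells in 96-well plates for 48 hours; endpoints were derived by simple linear interpolation of the resulting dose-response curve. GI50 marks 50% less growth.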 Calls of active or inactive are those of the source. Cut-off read from the data, not from the text of the source: active = GI50 up to about 1.1 µM and inactive = higher.

Legend:
Test in all cases: NCI tumour cell line growth inhibition, 48 h
[1] = test system: 786-0
[2] = test system: A498
[3] = test system: A549
[4] = test system: ACHN
[5] = test system: BT-549
[6] = test system: CAKI-1
[7] = test system: COLO 205
[8] = test system: DU-145
[9] = test system: EKVX
[10] = test system: HCC 2998
[11] = test system: HCT-116
[12] = test system: HCT-15
[13] = test system: HL-60
[14] = test system: HOP-92
[15] = test system: HT-29
[16] = test system: Hs-578T
[17] = test system: IGROV-1
[18] = test system: K562
[19] = test system: KM12
[20] = test system: LOX IMVI
[21] = test system: M14
[22] = test system: MCF7
[23] = test system: MDA-MB-231
[24] = test system: MDA-MB-435
[25] = test system: MDA-N
[26] = test system: MOLT-4
[27] = test system: Malme-3M
[28] = test system: NCI-H226
[29] = test system: NCI-H23
[30] = test system: NCI-H460
[31] = test system: NCI-H522
[32] = test system: NCI/ADR-RES
[33] = test system: OVCAR-3
[34] = test system: OVCAR-4
[35] = test system: OVCAR-5
[36] = test system: OVCAR-8
[37] = test system: PC-3
[38] = test system: RPMI-8226
[39] = test system: RXF 393
[40] = test system: SF-268
[41] = test system: SF-295
[42] = test system: SF-539
[43] = test system: SK-MEL-28
[44] = test system: SK-MEL-2
[45] = test system: SK-MEL-5
[46] = test system: SK-OV-3
[47] = test system: SN12C
[48] = test system: SNB-19
[49] = test system: SNB-75
[50] = test system: SR
[51] = test system: SW-620
[52] = test system: T47D
[53] = test system: U-251
[54] = test system: UACC-257
[55] = test system: UACC-62
[56] = test system: UO-31
[57] = test system: CCRF-CEM
[58] = test system: HOP-62
[59] = test system: TK-10

Measured: GI50

CC(=O)OC(=C(C#N)C#N)c1nccnc1C(=O)O
inactive: [1] > 100 µM | [2] > 100 µM | [3] > 100 µM | [4] > 100 µM | [5] > 100 µM | [6] > 100 µM | [7] > 100 µM | [8] > 100 µM | [9] > 100 µM | [10] > 100 µM | [11] > 100 µM | [13] > 100 µM | [14] > 100 µM | [15] > 100 µM | [16] > 100 µM | [17] > 100 µM | [18] > 100 µM | [19] > 100 µM | [20] > 100 µM | [21] > 100 µM | [22] > 100 µM | [23] > 100 µM | [24] > 100 µM | [25] > 100 µM | [26] > 100 µM | [27] > 100 µM | [28] > 100 µM | [29] > 100 µM | [30] > 100 µM | [31] > 100 µM | [32] > 100 µM | [33] > 100 µM | [34] > 100 µM | [35] > 100 µM | [36] > 100 µM | [37] > 100 µM | [38] > 100 µM | [39] > 100 µM | [40] > 100 µM | [41] > 100 µM | [42] > 100 µM | [43] > 100 µM | [44] > 100 µM | [45] > 100 µM | [46] > 100 µM | [47] > 100 µM | [48] > 100 µM | [49] 95.7 µM | [50] > 100 µM | [51] > 100 µM | [52] > 100 µM | [53] > 100 µM | [54] > 100 µM | [55] > 100 µM | [56] > 100 µM
> 100 µM: [12]

O=C(/N=C1/OC(CN2CCOCC2)CN1C(=O)Nc1ccccc1)Nc1ccccc1 (centres undefined)
> 100 µM: [12]
inactive: [1] > 100 µM | [2] > 100 µM | [3] > 100 µM | [4] > 100 µM | [5] > 100 µM | [6] > 100 µM | [57] > 100 µM | [7] > 100 µM | [8] > 100 µM | [9] > 100 µM | [10] > 100 µM | [11] > 100 µM | [13] > 100 µM | [58] > 100 µM | [14] 94.6 µM | [15] > 100 µM | [16] > 100 µM | [17] > 100 µM | [18] > 100 µM | [19] > 100 µM | [20] > 100 µM | [21] > 100 µM | [22] > 100 µM | [23] > 100 µM | [24] > 100 µM | [25] > 100 µM | [26] > 100 µM | [27] > 100 µM | [28] > 100 µM | [29] > 100 µM | [30] > 100 µM | [31] > 100 µM | [32] > 100 µM | [34] > 100 µM | [35] > 100 µM | [36] > 100 µM | [37] > 100 µM | [38] > 100 µM | [39] > 100 µM | [40] > 100 µM | [41] > 100 µM | [43] > 100 µM | [44] > 100 µM | [45] > 100 µM | [46] > 100 µM | [47] > 100 µM | [48] > 100 µM | [49] 54.7 µM | [50] > 100 µM | [51] > 100 µM | [52] 21.4 µM | [59] > 100 µM | [53] > 100 µM | [54] > 100 µM | [55] > 100 µM | [56] > 100 µM

CCc1n[nH]c(=O)n1N1C(=O)C2CCCCC2C1=O (centres undefined)
inactive: [1] > 100 µM | [2] > 100 µM | [3] > 100 µM | [4] > 100 µM | [5] > 100 µM | [6] > 100 µM | [57] > 100 µM | [7] > 100 µM | [8] > 100 µM | [9] > 100 µM | [10] > 100 µM | [11] > 100 µM | [13] > 100 µM | [58] > 100 µM | [14] > 100 µM | [15] > 100 µM | [16] > 100 µM | [17] > 100 µM | [18] > 100 µM | [19] > 100 µM | [20] > 100 µM | [21] > 100 µM | [22] > 100 µM | [23] > 100 µM | [24] > 100 µM | [25] > 100 µM | [26] > 100 µM | [27] > 100 µM | [28] > 100 µM | [29] > 100 µM | [31] > 100 µM | [32] > 100 µM | [33] > 100 µM | [34] > 100 µM | [35] > 100 µM | [36] > 100 µM | [37] > 100 µM | [38] > 100 µM | [39] > 100 µM | [40] > 100 µM | [41] > 100 µM | [43] > 100 µM | [44] > 100 µM | [45] > 100 µM | [46] > 100 µM | [47] > 100 µM | [49] > 100 µM | [50] > 100 µM | [51] > 100 µM | [52] > 100 µM | [59] > 100 µM | [53] > 100 µM | [54] > 100 µM | [55] > 100 µM | [56] > 100 µM
> 100 µM: [12]
